Where two headings read alike, the source gives them in different places. Numbered stars: 1 amine (or outer) side, 2 acyl side, 3 side chain; on linkers, the order of the positions; unused ones are H or OH. Bridge positions count the residues as written; N and C are the ends. Square brackets hold non-standard residues; d marks the D form. Peptide text beside a SMILES is read from it. * marks the point of attachment. Acetyl(1-DOTA-4-piperidyl) = O=C(O)CN1CCN(CC(=O)O)CCN(CC(=O)N2CCC(CC(=O)*)CC2)CCN(CC(=O)O)CC1; DOTA = O=C(O)CN1CCN(CC(=O)O)CCN(CC(=O)*)CCN(CC(=O)O)CC1; Biotin = O=C1N[C@H]2[C@H](CS[C@H]2CCCCC(=O)*)N1; Phe(4-CF3) = N[C@@H](Cc1ccc(C(F)(F)F)cc1)C(=O)O; Phe(3-Cl) = N[C@@H](Cc1cccc(Cl)c1)C(=O)O; Phe(4-Cl) = N[C@@H](Cc1ccc(Cl)cc1)C(=O)O; Ethylenediamine = C(CN[*:2])N[*:1]; 3Pal = N[C@@H](Cc1cccnc1)C(=O)O; X1 = O=C(CC1CCN([*:1])CC1)[*:2]; Cit = NC(=O)NCCC[C@H](N)C(=O)O; Tle = CC(C)(C)[C@H](N)C(=O)O; αMeP = C[C@@]1(C(=O)O)CCCN1; Nle = CCCC[C@H](N)C(=O)O; NHCH2CH2NHMe = CNCCN*; Aib = CC(C)(N)C(=O)O; CO = O=C([*:1])[*:2]; NHBu = CCCCN*
Key:
[1] = biological target: T1, PSMA-expressing C4-2 cells (Homo sapiens, UniProt Q04609); experiment: FACS binding assay (competition with 50 nM PSM-0183); details: read-out: pIC50 [C4-2] CAT (converted)
T1 construct: PSMA-expressing C4-2 cells (ATCC, Cat. No. CRL-3314) were cultured in RPMI-1640; host or cells: C4-2 cells
In short: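 Competition format: fluorescent tracer PSM-0183 (50 nM) displaced from PSMA on C4-2 cells by a test compound titration over 1 h at 4 °C. Bound tracer was quantified as flow-cytometric AF488 median fluorescence after washing. Four-parameter logistic fits of MFI data gave IC50 and pIC50.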

[2] = biological target: T2, Fc-fusion protein of human PSMA (hPSMA-Fc) (Homo sapiens, UniProt Q04609); experiment: Surface plasmon resonance assay (Biacore T200, single cycle kinetic); format: binding; details: hPSMA-Fc, 25° C., read-out: pKD CAT (converted)
T2 construct: purchased Acro Biosystems PSA-H5264
In short: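 KD, expressed as pKD, came from 1:1 Langmuir fits of reference- and buffer-blank-subtracted SPR data. The runs were single-cycle kinetics at 25° C in HBST/0.1% DMSO over human PSMA-Fc, captured to ~1000 RU on a peptide-coated CM5 surface and regenerated with 10 mM glycine pH 1.5.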

[3] = pIC50 category of FACS binding, C4-2 cells
[4] = pKD category for PSMA SPR activity assay
[5] = FACS binding, PSMA-expressing C4-2 cells, pIC50 category

T2 sequence (Q04609 44-750 limits assumed): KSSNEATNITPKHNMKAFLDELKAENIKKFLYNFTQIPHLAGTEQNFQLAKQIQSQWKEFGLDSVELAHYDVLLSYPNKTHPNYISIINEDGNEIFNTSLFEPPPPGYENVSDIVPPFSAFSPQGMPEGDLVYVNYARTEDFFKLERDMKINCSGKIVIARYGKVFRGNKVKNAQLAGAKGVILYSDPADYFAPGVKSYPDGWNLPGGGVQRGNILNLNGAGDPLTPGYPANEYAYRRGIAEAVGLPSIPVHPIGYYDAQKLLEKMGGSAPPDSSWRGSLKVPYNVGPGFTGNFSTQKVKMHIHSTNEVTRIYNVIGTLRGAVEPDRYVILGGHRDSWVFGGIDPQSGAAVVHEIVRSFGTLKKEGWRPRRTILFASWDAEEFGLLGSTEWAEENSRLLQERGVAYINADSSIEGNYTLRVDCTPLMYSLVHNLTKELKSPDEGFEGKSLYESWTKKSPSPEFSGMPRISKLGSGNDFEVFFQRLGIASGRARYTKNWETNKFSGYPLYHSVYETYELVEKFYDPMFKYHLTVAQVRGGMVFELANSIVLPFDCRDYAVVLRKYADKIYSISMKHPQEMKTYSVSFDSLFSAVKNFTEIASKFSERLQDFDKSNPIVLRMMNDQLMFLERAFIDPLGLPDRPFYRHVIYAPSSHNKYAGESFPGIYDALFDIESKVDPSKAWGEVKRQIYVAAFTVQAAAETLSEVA
T1 sequence (Q04609 whole entry): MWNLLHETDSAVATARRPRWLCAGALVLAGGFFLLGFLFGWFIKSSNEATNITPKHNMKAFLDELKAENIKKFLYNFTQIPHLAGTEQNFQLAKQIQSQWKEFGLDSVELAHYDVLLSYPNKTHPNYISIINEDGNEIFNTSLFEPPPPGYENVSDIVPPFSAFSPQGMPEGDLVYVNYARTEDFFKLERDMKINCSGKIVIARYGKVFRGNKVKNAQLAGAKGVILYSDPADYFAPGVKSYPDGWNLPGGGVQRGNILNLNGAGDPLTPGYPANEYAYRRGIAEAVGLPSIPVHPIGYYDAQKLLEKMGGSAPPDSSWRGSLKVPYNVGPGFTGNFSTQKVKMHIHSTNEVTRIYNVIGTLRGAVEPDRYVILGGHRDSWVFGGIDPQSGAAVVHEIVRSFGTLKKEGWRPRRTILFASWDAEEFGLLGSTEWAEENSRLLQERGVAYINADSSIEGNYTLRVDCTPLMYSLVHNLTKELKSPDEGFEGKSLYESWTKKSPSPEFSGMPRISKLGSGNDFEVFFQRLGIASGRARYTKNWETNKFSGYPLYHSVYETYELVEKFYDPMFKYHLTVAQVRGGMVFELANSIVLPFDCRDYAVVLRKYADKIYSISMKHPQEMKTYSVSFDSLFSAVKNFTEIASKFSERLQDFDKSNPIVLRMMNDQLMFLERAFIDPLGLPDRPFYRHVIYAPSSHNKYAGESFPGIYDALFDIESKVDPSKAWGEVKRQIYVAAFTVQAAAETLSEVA

Row | IC50 [1, 3] [µM] | Kd [2, 4] [µM] | IC50 [1, 5] [µM] | Kd ([2]; PSMA SPR assay, pKD category) [µM] | also measured | SMILES
1 | < 0.2 | 0.0126 to 0.126 | – | – | – | CNCCNC(=O)[C@@H](NC(=O)[C@@H]1CSSC[C@H](NC(=O)[C@H](Cc2ccc(Cl)cc2)NC(=O)C(C)(C)NC(=O)[C@@H](NC(=O)CC2CCN(C(=O)CN3CCN(CC(=O)O)CCN(CC(=O)O)CCN(CC(=O)O)CC3)CC2)[C@@H](C)O)C(=O)N[C@@H](CCCCN)C(=O)N[C@@H](CCCNC(=N)N)C(=O)NC(C)(C)C(=O)N[C@@H](CC(N)=O)C(=O)N1)C(C)(C)C [PSM-0456, DOTA-Cmp-Thr-Aib-Pcf-[Cys-Lys-Arg-Aib-Asn-Cys]-Tle-en(Me)] ({DOTA}-[X1]T[Aib][Phe(4-Cl)]CKR[Aib]NC[Tle]-NHCH2CH2NHMe; disulfide 5-10)
2 | < 0.2 | < 0.0126 | – | – | – | CCCC[C@H](NC(=O)[C@@H]1CSSC[C@H](NC(=O)[C@H](Cc2ccccc2)NC(=O)C(C)(C)NC(=O)[C@@H](NC(C)=O)[C@@H](C)O)C(=O)N[C@@H](CCCCN)C(=O)N[C@@H](CCCNC(=N)N)C(=O)N[C@@H](C)C(=O)N[C@@H](CC(N)=O)C(=O)N1)C(=O)N[C@H](C(=O)N[C@@H](CC(=O)O)C(N)=O)[C@@H](C)O [PSM-0501, Ac-Thr-Aib-Phe-[Cys-Lys-Arg-Ala-Asn-Cys]-Nle-Thr-Asp-NH2] (Ac-T[Aib]FCKRANC[Nle]TD-NH2; disulfide 4-9)
3 | – | – | > 3.16 | > 0.501 | – | C[C@@H](O)[C@H](NC(=O)[C@@H](NC(=O)[C@@H]1CSSC[C@H](NC(=O)[C@H](Cc2ccc(Cl)cc2)NC(=O)[C@@H](CCC(=O)O)NC(=O)[C@@H](NC(=O)CC2CCN(C(=O)CN3CCN(CC(=O)O)CCN(CC(=O)O)CCN(CC(=O)O)CC3)CC2)[C@@H](C)O)C(=O)N[C@@H](CCCCN)C(=O)N[C@@H](CCCNC(=N)N)C(=O)NC(C)(C)C(=O)N[C@@H](CC(N)=O)C(=O)N1)C(C)(C)C)C(N)=O [PSM-0343, DOTA-Cmp-Thr-glu-Pcf-[Cys-Lys-Arg-Aib-Asn-Cys]-Tle-Thr-NH2] ({DOTA}-[X1]T[dE][Phe(4-Cl)]CKR[Aib]NC[Tle]T-NH2; disulfide 5-10)
4 | < 0.2 | < 0.0126 | – | – | – | CC(=O)N[C@H](C(=O)N1CCC[C@@]1(C)C(=O)N[C@@H](Cc1ccccc1)C(=O)N[C@H]1CSSC[C@@H](C(=O)N[C@H](C(=O)N[C@H](C(N)=O)[C@@H](C)O)C(C)(C)C)NC(=O)[C@H](CC(N)=O)NC(=O)C(C)(C)NC(=O)[C@H](CCCNC(=N)N)NC(=O)[C@H](CCCCN)NC1=O)[C@@H](C)O [PSM-0508, Ac-Thr-Pam-Phe-[Cys-Lys-Arg-Aib-Asn-Cys]-Tle-Thr-NH2] (Ac-T[αMeP]FCKR[Aib]NC[Tle]T-NH2; disulfide 4-9)
5 | 0.2 to 1.26 | > 0.501 | – | – | – | CC(=O)NC(C)(C)C(=O)N[C@@H](Cc1ccc(Cl)cc1)C(=O)N[C@H]1CSSC[C@@H](C(N)=O)NC(=O)[C@H](CC(N)=O)NC(=O)C(C)(C)NC(=O)[C@H](CCCNC(=N)N)NC(=O)[C@H](CCCCN)NC1=O [PSM-0443, Ac-Aib-Pcf-[Cys-Lys-Arg-Aib-Asn-Cys]-NH2] (Ac-[Aib][Phe(4-Cl)]CKR[Aib]NC-NH2; disulfide 3-8)
6 | – | – | > 3.16 | > 0.501 | – | CCCC[C@H](NC(=O)[C@@H]1CSSC[C@H](NC(=O)[C@H](Cc2ccccc2)NC(=O)[C@H](C)NC(=O)[C@@H](NC(C)=O)[C@@H](C)O)C(=O)N[C@@H](CCCCN)C(=O)N[C@@H](CCCNC(=N)N)C(=O)N[C@@H](C)C(=O)N2CCC[C@H]2C(=O)N1)C(=O)N[C@H](C(=O)N[C@@H](CC(=O)O)C(N)=O)[C@@H](C)O [PSM-0286, Ac-Thr-Ala-Phe-[Cys-Lys-Arg-Ala-Pro-Cys]-Nle-Thr-Asp-NH2] (Ac-TAFCKRAPC[Nle]TD-NH2; disulfide 4-9)
7 | 0.2 to 1.26 | < 0.0126 | – | – | – | C[C@@H](O)[C@H](NC(=O)[C@@H](NC(=O)[C@@H]1CSSC[C@H](NC(=O)[C@H](Cc2ccc(Cl)cc2)NC(=O)C(C)(C)NC(=O)[C@@H](NC(=O)CC2CCN(C(=O)CN3CCN(CC(=O)O)CCN(CC(=O)O)CCN(CC(=O)O)CC3)CC2)[C@@H](C)O)C(=O)N[C@@H](CCCCNC(=O)CCCC[C@@H]2SC[C@@H]3NC(=O)N[C@@H]32)C(=O)N[C@@H](CCCNC(=N)N)C(=O)NC(C)(C)C(=O)N[C@@H](CC(N)=O)C(=O)N1)C(C)(C)C)C(N)=O [PSM-0490, DOTA-Cmp-Thr-Aib-Pcf-[Cys-Lys (Bio)-Arg-Aib-Asn-Cys]-Tle-Thr-NH2] ({DOTA}-[X1]T[Aib][Phe(4-Cl)]CK(Biotin)R[Aib]NC[Tle]T-NH2; disulfide 5-10)
8 | < 0.2 | < 0.0126 | – | – | – | CCCCNC(=O)N[C@H](C(=O)NC(C)(C)C(=O)N[C@@H](Cc1ccc(Cl)cc1)C(=O)N[C@H]1CSSC[C@@H](C(=O)N[C@H](C(=O)N[C@H](C(=O)N[C@H](CCCCNC(=O)CC2CCN(C(=O)CN3CCN(CC(=O)O)CCN(CC(=O)O)CCN(CC(=O)O)CC3)CC2)C(N)=O)[C@@H](C)O)C(C)(C)C)NC(=O)[C@H](CC(N)=O)NC(=O)C(C)(C)NC(=O)[C@H](CCCNC(=N)N)NC(=O)[C@H](CCCCN)NC1=O)[C@@H](C)O [PSM-0452, nBuCAyl-Thr-Aib-Pcf-[Cys-Lys-Arg-Aib-Asn-Cys]-Tle-Thr-lys (DOTA-Cmp)-NH2] ({NHBu-CO}-T[Aib][Phe(4-Cl)]CKR[Aib]NC[Tle]T[dK](Acetyl(1-DOTA-4-piperidyl))-NH2; disulfide 4-9)
9 | – | – | – | – | IC50 ([1]; FACS binding, C4-2 cells, competition with 50 nM PSM-0183, category): 1.26 to 3.16 µM; Kd ([2]; SPR, single cycle kinetic, category): > 0.501 µM | C[C@@H](O)[C@H](NC(=O)[C@@H](NC(=O)[C@@H]1CSSC[C@H](NC(=O)[C@H](Cc2cccnc2)NC(=O)C(C)(C)NC(=O)[C@@H](NC(=O)CC2CCN(C(=O)CN3CCN(CC(=O)O)CCN(CC(=O)O)CCN(CC(=O)O)CC3)CC2)[C@@H](C)O)C(=O)N[C@@H](CCCCN)C(=O)N[C@@H](CCCNC(N)=O)C(=O)NC(C)(C)C(=O)N[C@@H](CC(N)=O)C(=O)N1)C(C)(C)C)C(N)=O [PSM-0255, DOTA-Cmp-Thr-Aib-Mpa-[Cys-Lys-Cit-Aib-Asn-Cys]-Tle-Thr-NH2] ({DOTA}-[X1]T[Aib][3Pal]CK[Cit][Aib]NC[Tle]T-NH2; disulfide 5-10)
10 | – | – | 1.26 to 3.16 | 0.0126 to 0.126 | – | CCCC[C@H](NC(=O)[C@@H]1CSSC[C@H](NC(=O)[C@H](Cc2ccccc2)NC(=O)[C@H](C)NC(=O)[C@@H](NC(C)=O)[C@@H](C)O)C(=O)N[C@@H](CCCCN)C(=O)N[C@@H](CCCNC(=N)N)C(=O)N[C@@H](C)C(=O)N[C@@H](C)C(=O)N1)C(=O)N[C@H](C(=O)N[C@@H](CC(=O)O)C(N)=O)[C@@H](C)O [PSM-0335, Ac-Thr-Ala-Phe-[Cys-Lys-Arg-Ala-Ala-Cys]-Nle-Thr-Asp-NH2] (Ac-TAFCKRAAC[Nle]TD-NH2; disulfide 4-9)
11 | – | – | < 0.2 | < 0.0126 | – | CCCC[C@@H]1NC(=O)[C@H](CCCCN)NC(=O)[C@@H](NC(=O)[C@H](Cc2ccc(Cl)cc2)NC(=O)C(C)(C)NC(=O)[C@@H](NC(C)=O)[C@@H](C)O)CSSC[C@@H](C(=O)N[C@H](C(=O)N[C@H](C(N)=O)[C@@H](C)O)C(C)(C)C)NC(=O)[C@H](CC(N)=O)NC(=O)C(C)(C)NC1=O [PSM-0338, Ac-Thr-Aib-Pcf-[Cys-Lys-Nle-Aib-Asn-Cys]-Tle-Thr-NH2] (Ac-T[Aib][Phe(4-Cl)]CK[Nle][Aib]NC[Tle]T-NH2; disulfide 4-9)
12 | < 0.2 | < 0.0126 | – | – | – | CC(=O)N[C@H](C(=O)NC(C)(C)C(=O)N[C@@H](Cc1ccc(C(F)(F)F)cc1)C(=O)N[C@H]1CSSC[C@@H](C(=O)N[C@H](C(=O)N[C@H](C(N)=O)[C@@H](C)O)C(C)(C)C)NC(=O)[C@H](CC(N)=O)NC(=O)C(C)(C)NC(=O)[C@H](CCCNC(=N)N)NC(=O)[C@H](CCCCN)NC1=O)[C@@H](C)O [PSM-0550, Ac-Thr-Aib-Ptf-[Cys-Lys-Arg-Aib-Asn-Cys]-Tle-Thr-NH2] (Ac-T[Aib][Phe(4-CF3)]CKR[Aib]NC[Tle]T-NH2; disulfide 4-9)
13 | < 0.2 | < 0.0126 | – | – | – | CC(=O)N[C@H](C(=O)NC(C)(C)C(=O)N[C@@H](Cc1ccc(Cl)cc1)C(=O)N[C@H]1CSSC[C@@H](C(=O)N[C@H](C(=O)NCCN)C(C)(C)C)NC(=O)[C@H](CC(N)=O)NC(=O)C(C)(C)NC(=O)[C@H](CCCNC(=N)N)NC(=O)[C@H](CCCCN)NC1=O)[C@@H](C)O [PSM-0393, Ac-Thr-Aib-Pcf-[Cys-Lys-Arg-Aib-Asn-Cys]-Tle-en] (Ac-T[Aib][Phe(4-Cl)]CKR[Aib]NC[Tle]-Ethylenediamine; disulfide 4-9)
14 | – | – | 0.2 to 1.26 | 0.0126 to 0.126 | – | CC(=O)N[C@H](C(=O)NC(C)(C)C(=O)N[C@@H](Cc1cccc(Cl)c1)C(=O)N[C@H]1CSSC[C@@H](C(=O)N[C@H](C(=O)N[C@H](C(=O)N2CCC(CC(=O)N[C@H](CCCCNC(=O)CN3CCN(CC(=O)O)CCN(CC(=O)O)CCN(CC(=O)O)CC3)C(N)=O)CC2)[C@@H](C)O)C(C)(C)C)NC(=O)[C@H](CC(N)=O)NC(=O)C(C)(C)NC(=O)[C@H](CCCNC(N)=O)NC(=O)[C@H](CCCCN)NC1=O)[C@@H](C)O [PSM-0275, Ac-Thr-Aib-Mcf-[Cys-Lys-Cit-Aib-Asn-Cys]-Tle-Thr-Cmp-lys(DOTA)-NH2] (Ac-T[Aib][Phe(3-Cl)]CK[Cit][Aib]NC[Tle]T[X1][dK](DOTA)-NH2; disulfide 4-9)
